This note sets out measurements from ChEMBL document CHEMBL1150756, “Isolation of an anti-inflammatory principle from the fruit juice of Ecballium elaterium” (J Nat Prod, 1988).

Data set [1] can be described thus: Toxicity in po dosed dd mouse. Format: organism-based. The following applies: in vivo.
For another data set, the system named is Mus musculus. Kind of data set: Antiinflammatory activity in po dosed dd mouse assessed as inhibition of acetic acid-induced vascular permeability administered 30 mins before acetic acid challenge measured after 20 mins. In kind it is functional.

The LD50 is the dose expected to kill half of the subjects tested. A low value points to a more toxic substance. The ED50 is the midpoint of the dose-response relation.

In data set [1], `CC(=O)OC(C)(C)/C=C/C(=O)[C@](C)(O)[C@H]1[C@H](O)C[C@@]2(C)[C@@H]3CC=C4[C@@H](C[C@H](O)C(=O)C4(C)C)[C@]3(C)C(=O)C[C@]12C` [CUCURBITACIN B] came in with a median lethal dose (LD50) of 10.9 mg/kg.
In the case of `CC(=O)OC(C)(C)/C=C/C(=O)[C@](C)(O)[C@H]1[C@H](O)C[C@@]2(C)[C@@H]3CC=C4[C@H](C[C@H](O)C(=O)C4(C)C)[C@]3(C)C(=O)C[C@]12C` [CUCURBITACIN B], in the data set on Mus musculus, the 50% effective dose (ED50) was determined as 6.1 mg/kg.
